Experimental data taken from PMC5091913, “Identification and Validation of Small-Gatekeeper Kinases as Drug Targets in Giardia lamblia” (PLoS Neglected Tropical Diseases, 2016).
Where two headings read alike, the source gives them in different places.

What was measured:
Gl50803_16034 = molecular target: T1, Gl50803_16034 (Giardia duodenalis, UniProt A8BHW1); experiment: thermal shift assay; format: binding
T1 construct: gene GL50803_0016034
T1 sequence (A8BHW1 1-432): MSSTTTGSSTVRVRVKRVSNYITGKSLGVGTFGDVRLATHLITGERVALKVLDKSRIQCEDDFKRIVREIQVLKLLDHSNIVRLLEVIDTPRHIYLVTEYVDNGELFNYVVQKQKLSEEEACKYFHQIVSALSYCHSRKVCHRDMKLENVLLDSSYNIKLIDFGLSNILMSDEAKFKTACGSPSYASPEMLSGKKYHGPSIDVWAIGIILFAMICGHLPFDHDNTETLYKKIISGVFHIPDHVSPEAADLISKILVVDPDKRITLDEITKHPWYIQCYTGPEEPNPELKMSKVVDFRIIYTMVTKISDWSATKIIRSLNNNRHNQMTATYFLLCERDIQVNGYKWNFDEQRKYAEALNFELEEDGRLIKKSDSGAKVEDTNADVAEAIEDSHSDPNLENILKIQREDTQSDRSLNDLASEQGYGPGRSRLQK

Gl50803_8445 = molecular target: T2, Gl50803_8445 (Giardia duodenalis, UniProt A8BXP9); experiment: thermal shift assay; format: binding; conditions: also printed as 2°–3°
T2 construct: gene GL50803_008445
T2 sequence (A8BXP9 1-597): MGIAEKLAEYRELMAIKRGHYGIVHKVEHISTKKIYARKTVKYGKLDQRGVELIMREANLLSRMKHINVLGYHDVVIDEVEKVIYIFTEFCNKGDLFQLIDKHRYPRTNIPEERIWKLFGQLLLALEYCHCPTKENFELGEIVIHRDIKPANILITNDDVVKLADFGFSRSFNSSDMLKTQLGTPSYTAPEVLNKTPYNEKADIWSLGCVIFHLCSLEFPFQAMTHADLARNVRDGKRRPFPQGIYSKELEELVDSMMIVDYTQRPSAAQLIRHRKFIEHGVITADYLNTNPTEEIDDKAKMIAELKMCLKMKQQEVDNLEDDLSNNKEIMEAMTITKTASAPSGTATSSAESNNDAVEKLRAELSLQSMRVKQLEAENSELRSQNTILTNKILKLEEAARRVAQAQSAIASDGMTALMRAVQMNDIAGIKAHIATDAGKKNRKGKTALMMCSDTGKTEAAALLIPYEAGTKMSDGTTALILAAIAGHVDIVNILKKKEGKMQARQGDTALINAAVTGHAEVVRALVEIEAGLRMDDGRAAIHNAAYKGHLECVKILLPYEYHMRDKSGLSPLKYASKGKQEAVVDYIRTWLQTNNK

In the case of `CCOc1ccc2cc(-c3nc(C(C)(C)C)n4ccnc(N)c34)ccc2c1` [compound 1213, 1213], the ΔTm (Gl50803_16034; also printed as 2°–3°) was ~ 3 ° and the ΔTm (Gl50803_8445) was ~ 3 °.
With `Nc1ncnc2c1c(-c1ccc(-c3ccccc3)cc1)nn2CC1CCNCC1` [compound 1244, 1244] the ΔTm (Gl50803_16034) was 5.2 °.
`Nc1ncnc2c1c(-c1ccc3nc(-c4ccccc4)oc3c1)nn2CC1CCNCC1` [compound 1264, 1264] showed a ΔTm (Gl50803_16034) of 6.5 °.
